Experimental data reported in patent US20110039721A1, “METHOD FOR PREDICTION ABOUT CARCINOGENICITY OF SUBSTANCE IN RODENT” (Chemicals Evaluation and Research Institute, priority 2007, published 2011).

What was measured:
[1] = system: mRNA expressed from the genes (A) to (D) in rat liver; assay: Behavior of genes (mRNA expression level, oligo-DNA microarray) in rat liver after 28-day oral administration; assay type: in vivo; details: rat, in vivo
Procedure, shortened: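 Liver mRNA measured by oligo-DNA microarray after 28 days of once-daily oral gavage in 5-week-old male F344 rats (n=4 per group), with vehicle controls given equal solvent volume. Significance threshold: 1.5-fold up or down versus control, with changes opposite in direction to other carcinogens counted as not significant.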

liver = details: in vivo; cited from earlier work
rodent = details: in vivo; cited from earlier work

Cl[C@H]1[C@H](Cl)[C@H](Cl)[C@@H](Cl)[C@H](Cl)[C@H]1Cl [TS021, α-Hexachlorocyclohexane]
−: Behavior of gene caused by administration of chemical substance, Gene No. 154 [1] | Behavior of gene caused by administration of chemical substance, Gene No. 725 [1] | Behavior of gene caused by administration of chemical substance, Gene No. 893 [1] | Behavior of gene caused by administration of chemical substance, Gene No. 1119 [1] | Behavior of gene caused by administration of chemical substance, Gene No. 1131 [1] | Behavior of gene caused by administration of chemical substance, Gene No. 1163 [1] | Behavior of gene caused by administration of chemical substance, Gene No. 1334 [1] | Behavior of gene caused by administration of chemical substance, Gene No. 1562 [1] | Behavior of gene caused by administration of chemical substance, Gene No. 1993 [1] | Behavior of gene caused by administration of chemical substance, Gene No. 2026 [1] | Behavior of gene caused by administration of chemical substance, Gene No. 2494 [1] | Behavior of gene caused by administration of chemical substance, Gene No. 2546 [1] | Behavior of gene caused by administration of chemical substance, Gene No. 3776 [1] | Behavior of gene caused by administration of chemical substance, Gene No. 3929 [1] | Behavior of gene caused by administration of chemical substance, Gene No. 4218 [1] | Behavior of gene caused by administration of chemical substance, Gene No. 4846 [1] | Behavior of gene caused by administration of chemical substance, Gene No. 5600 [1] | Behavior of gene caused by administration of chemical substance, Gene No. 5726 [1] | Behavior of gene caused by administration of chemical substance, Gene No. 5878 [1] | Behavior of gene caused by administration of chemical substance, Gene No. 6026 [1] | Behavior of gene caused by administration of chemical substance, Gene No. 6620 [1]
C+: Carcinogenicity (rodent)
+: Behavior of gene caused by administration of chemical substance, Gene No. 533 [1] | Behavior of gene caused by administration of chemical substance, Gene No. 813 [1] | Behavior of gene caused by administration of chemical substance, Gene No. 1494 [1] | Behavior of gene caused by administration of chemical substance, Gene No. 1741 [1] | Behavior of gene caused by administration of chemical substance, Gene No. 2045 [1] | Behavior of gene caused by administration of chemical substance, Gene No. 2203 [1] | Behavior of gene caused by administration of chemical substance, Gene No. 4095 [1] | Behavior of gene caused by administration of chemical substance, Gene No. 4973 [1] | Behavior of gene caused by administration of chemical substance, Gene No. 5634 [1] | Behavior of gene caused by administration of chemical substance, Gene No. 6182 [1] | Behavior of gene caused by administration of chemical substance, Gene No. 6303 [1] | Behavior of gene caused by administration of chemical substance, Gene No. 6742 [1]
Cr+: Liver carcinogenicity (liver)
